The subject of assay [1] is Propionibacterium acnes ATCC 11827. The assay can be described thus: Determination of MIC and MBC, P. acnes. Format: cell-based. Conditions: Cutibacterium acnes, ATCC11827; Propionibacterium acnes ATCC 11827, 2.6×10^4 cells per milliliter. Here is the method: (§1) A series of test tubes was prepared containing the culture broth inoculated with the test micro-organism and the substance to be tested was introduced at decreasing scalar concentrations. […] The test tubes in which the microbial population developed were then determined by observing visually the turbidity that is indicative of growth. Test tubes in which the substance is present at a sufficient concentration to inhibit growth remain clear. When the nature itself of the sample prevents visual reading or if it is wished to determine whether the lack of development is due to a microbiostatic or microbicidal action, transfers are made to appropriate agar media for confirmation. The concentration of sample at which growth of the micro-organisms is inhibited is considered to be the Minimum Inhibitory Concentration (MIC), while that at which viable micro-organisms are no longer present is considered to be the Minimum Bactericidal Concentration (MBC) In a further set of experiments we tested the antibacterial activity of Salix alba extract and 1,2-decanediol, a substance which is known to show antibacterial activity against P. acnes, alone and in combination according to the above-described method. The microbial strain used was Propionibacterium acnes ATCC 11827 titrated at a concentration of 2.6×10^4 cells per milliliter of medium.

Another assay concerns TNFalpha. The assay can be described thus: Anti-inflammatory activity: LPS-induced TNFalpha release in HaCat keratinocytes (ELISA). It is filed as cell-based, human. An excerpt:
(§2) The aim of the test was the evaluation of the anti-inflammatory activity of Salix alba extract, 1,2-decanediol and their combination by means of the study of TNFalpha, IL1alpha, IL8 synthesis modulation in a biological experimental model (keratinocyte cell culture HaCat).
(§3) In order to stimulate the inflammatory process in our experimental model, lipopolysaccharides (LPS) were selected. LPS are pro-inflammatory mediators secreted by bacteria, e.g. by P. acnes.
(§4) 1,2-decanediol (SMAL) was emulsified with corn oil (37° C.) in mechanical agitation and addition of culture medium, starting from the following ratio: 0.05 g emulsified with 100 μl corn oil in a final volume of culture medium of 1 ml (37° C.).
(§5) Salix alba extract (WMAL) was direct diluted in culture medium, starting from the following ratio: 0.05 g in 1 ml (37° C.); subsequent dilutions in culture medium (37° C.). […]
(§6) At the end of the monitored experimental period, cytokine levels were measured by means of ELISA assay. […]
(§7) Commercial ELISA kits were used for the determination of cytokine quantity.
(§8) The quantitative determination uses a calibration curve made-up of standard known and growing concentrations of standard cytokine. […]
(§9) In order to compare the two different work sessions, the obtained data were normalized in a 0-100% scale, in which CTR− is 0 and CTR+ is 100%; all the other data were calculated in this interval.
(In general: In an ELISA, binding on a coated surface is turned into a signal by an enzyme label.)

For another assay, the system named is IL8. Description: Anti-inflammatory activity: LPS-induced IL8 release in HaCat keratinocytes (ELISA). Format: cell-based, human.
Text: as §2, §3, §4, §5, §6, §7, §8, §9

In another assay the test system is IL-6. The assay can be described thus: Anti-inflammatory activity: LPS-induced IL-6 release in HaCat keratinocytes (ELISA), as headed in Table 3. Conditions: HaCat + LPS 10 ng/ml; CTR− is 0, CTR+ is 100%; WMAL 0.4%, SMAL 0.02%. Format: cell-based, human.
In the next assay the test system is IL1alpha. Description: Anti-inflammatory activity: LPS-induced IL1alpha release in HaCat keratinocytes (ELISA). It is filed as cell-based, human.
Text: as §2, §3, §4, §5, §6, §7, §8, §9

Assay [2] deals with Propionibacterium acnes ATCC 11827. To be noted: common knowledge; cited from earlier work.
The test system of assay [3] is Staphylococcus aureus ATCC 25923. Description: Determination of MIC and MBC, Staphylococcus aureus. Format: cell-based. To be noted: for MBC: ATCC25923; for MIC: ATCC25923, read-out: MIC. As to the method:
as §1, with “The” for “In a further set of experiments we tested the”, “these substances against Staphylococcus aureus acnes ATCC 25923” for “Salix alba extract”, “Staphylococcus epidermidis ATCC 12228 was tested” for “1,2-decanediol, a substance which is known to show antibacterial activity against P. acnes, alone and in combination”, “method.” for “method. The microbial strain used was Propionibacterium acnes ATCC 11827 titrated at a concentration of 2.6×10^4 cells per milliliter of medium.”

In assay [4] the test system is Staphylococcus epidermidis ATCC 12228. Description: Determination of MIC and MBC, Staphylococcus epidermidis. Conditions: for MBC: ATCC12228; for MIC: ATCC12228, read-out: MIC. It is filed as cell-based. Here is the method: as §1, with “The” for “In a further set of experiments we tested the”, “these substances against Staphylococcus aureus acnes ATCC 25923” for “Salix alba extract”, “Staphylococcus epidermidis ATCC 12228 was tested” for “1,2-decanediol, a substance which is known to show antibacterial activity against P. acnes, alone and in combination”, “method.” for “method. The microbial strain used was Propionibacterium acnes ATCC 11827 titrated at a concentration of 2.6×10^4 cells per milliliter of medium.”

The mark [5] stands for this setting: HaCat + LPS 10 ng/ml, CTR− is 0, CTR+ is 100%, WMAL 0.4%, SMAL 0.02%.

In brackets after ≈: the same amount, converted by molar mass. Bounds are passed on as bounds.

In the case of `CCCCCCCCC(O)CO` (stereo not shown) [1,2-decanediol], in assay [1], the minimal bactericidal concentration (MBC) stood at 1250 mg/L and the MIC stood at 620 mg/L. The “effect on LPS-induced release of TNFalpha (in words)” value in the assay on TNFalpha (HaCat + LPS) is reported as “significantly reduce”. The “TNF-ALPHA, normalized data 0-100%” value in the assay on TNFalpha (setting [5]) amounted to 18.45%. Besides, the “effect on LPS-induced release of IL8 (in words)” value in the assay on IL8 (HaCat + LPS) was “significantly reduce”. Also, the “IL-8, normalized data 0-100%” value with IL8 (setting [5]) is 34.56%. Besides, in the assay on IL-6, the “IL-6, normalized data 0-100%” value is recorded as 61.69%. Also, the “effect on LPS-induced release of IL1alpha (in words)” value in the assay on IL1alpha is given as “significantly reduce”. In addition, in assay [2], the “antibacterial activity against P. acnes, as known (in words)” value was “effective”.

Consider `C=C[C@@](C)(/C=C/c1ccc(O)cc1)CCC=C(C)C` [Bakuchiol], for which, in assay [3], the MBC came to 100 mg/L (≈ 390 µM) and the minimal inhibitory concentration (MIC) is 6.25 mg/L (≈ 24.4 µM). In assay [4], the MBC turned out to be 100 mg/L (≈ 390 µM) and the MIC worked out at 6.25 mg/L (≈ 24.4 µM).

Take `CCCCCCCCCCCC(=O)O` [Lauric Acid, Lauric acid]: in assay [4], the minimal bactericidal concentration (MBC) is 1000 mg/L (≈ 4990 µM) and the minimum inhibitory concentration (MIC) amounted to 500 mg/L (≈ 2500 µM).

As for `Oc1ccc(C=Cc2cc(O)cc(O)c2)cc1` [Resveratrol], in assay [3], the MBC is above 100000 mg/L and the MIC worked out at 1000 mg/L (≈ 4380 µM). For the same molecule, in assay [4], the MBC is above 100000 mg/L and the minimum inhibitory concentration (MIC) stood at 250 mg/L (≈ 1100 µM).

In the case of `O=C(OOC(=O)c1ccccc1)c1ccccc1` [benzoyl peroxide], in assay [1], the MBC was determined as 480 mg/L and the MIC stood at 480 mg/L. The “antibacterial activity against P. acnes, as known (in words)” value in assay [2] is given as “strong antibacterial agent”.

In general, MBC refers to the smallest concentration meeting the test's criterion for killing. The term MIC denotes the lowest concentration that inhibits growth of the organism.

The values above are taken from patent US20190175467A1, “COMPOSITION FOR THE TREATMENT OF ACNE” (ROTTAPHARM LTD., priority 2015, published 2019).
